pKd: −log10 of the molar value. “And” between values parts separate entries of the source, which are not always exact repeats. Equal entries are not always repeated. No end group written: not given here.
Legend:
[1] = tested on: TWEAK-Fn14 signalling pathway, BRV5 cells; assay: Cell-based screening of individual peptides, gene expression microarray in TWEAK-stimulated BRV5 cells; set-up: species or system human; details: 6 h; for BIRC2 mRNA expression (normalized to NARS2) / HSP90B1 mRNA expression (normalized to NARS2) / IL6 mRNA expression (normalized to NARS2) / JUN mRNA expression (normalized to NARS2) / MAP4K4 mRNA expression (normalized to NARS2) / MAPK14 mRNA expression (normalized to NARS2) / NFKB2 mRNA expression (normalized to NARS2) / TNFRSF12A mRNA expression (normalized to NARS2) / TRAF2 mRNA expression (normalized to NARS2): 450 µM
Text: Pool 1 and 5 were therefore deconstructed to assess the effect of individual peptides and their activity on same cell-based screening. Pools 1 and 5 were composed of peptides 45, 46, 42, 3, 49, 11, and 13; and of peptides 1, 9, 30, 35, 41, 43, 7, and 14, respectively. As before, and shown in Figure 4B, the level of expression of probe genes on TWEAK-stimulated (T) BRV5 cells is overall higher than on non-stimulated (NT) one. […] The structural model of peptides 43, 30, 35 and 49 bound to TWEAK can be seen in Figure 5 and Supplementary Materials Figures S4–S6, respectively.
Three different cell lines were used in this study: BRV5, MDA-MB 435 (435-P), and HT29. The BRV5 is a highly metastatic brain cell line, obtained in one of our laboratories by primary culture from a brain of a nude mouse inoculated with human 435-Br1 brain metastatic cells, as previously described and used as a model to test the peptides in cell cultures. […] The triple negative 435-P cell line is a useful human breast cancer model that expresses both epithelial and melanocytic markers, and was included as the parental cell from which 435-Br1 metastatic variant was initially originated (both cell lines kindly provided by Dr Fabra at IDIBELL Institute, Hospitalet de Llobregat, Spain). Finally, HT29 human colon carcinoma cells obtained from the European Type Culture Collection (ECACC 91072201) were used as a positive control of TWEAK dependent Fn14 over-expressing cells to evaluate TWEAK-Fn14 axis of brain metastatic variants.
Appropriate cell culture conditions were established as the controls needed in the expression of genes with and without peptides and with and without TWEAK activation, both as pools and individually (see Supplementary Materials Figure S2). The protocol started with the seeding of 125,000 cells/well in 500 µL of culture media supplemented with 10% fetal bovine serum (CM+FBS10%) in 24-well dishes for 24 h before removing FBS (CM-FBS). After overnight starvation in CM-FBS culture, different peptide treatment conditions (at final concentration of 450 µM) were established in the presence or absence of TWEAK (25 ng/mL final concentration) (Peprotech EC, Ltd., London, UK). Some cells were treated with peptides at a single, unique, initial dose (time 0) while other were treated with repeated doses to account for the effect cell-culture degradation. These include a repeated treatment every hour (i.e., […]), every two hours (time 0, 2, and 4) and every three hours (time 0 and 3)—see Supplementary Materials Figure S2 for diagrammatic depiction. At time 6 (after six hours) cells were lysed and RNA extracted for transcriptomic analyses (see next). Cell were culture for six hours as this was the time needed to achieve the highest upregulation of the TWEAK-Fn14 axis upon TWEAK treatment as shown in previous time-course RT-PCR experiments (see Figure 2).
RNA from cells was extracted 6 h after treatments by direct lysis on the well. The RNeasy Micro kit (Qiagen, Hilden, Germany) was used to isolate total RNA from cell lysate following manufacturer’s protocols including an additional step of digestion with DNase I (Qiagen, Hilden, Germany). Total RNA concentration was measured in a NanoDrop 1000 spectrophotometer (Thermo Scientific, Waltham, MA, USA). The RNA extracted from treated and untreated cells (see above) was used as a proxy for gene expression.
The quantitative RT-PCR was performed using Fluidigm Dynamic Array FlexSix array with the specific primers for gene expression (Delta Genes Assays, Wet lab tested on Dynamic Array IFC) designed to RefSeq for detection by pPCR EvaGreen assay (Dynamic Array FlexSix, Fluidigm Corporation). Each Flex Six IFC has a total of six independent partitions. Each partition has a 12 × 12 format (12 assay inlets and 12 sample inlets) and will be run independently as a separate experimental run. […]

human His6-TWEAK protein = target: T1, human His6-TWEAK protein (Homo sapiens, UniProt O43508); assay: SPR binding of peptides to immobilized His6-TWEAK; details: 25 °C, 1:1 Langmuir global fit, representative of at least three independent experiments
T1 construct: purchased R&D Systems
T1 sequence (O43508 97-249 limits assumed): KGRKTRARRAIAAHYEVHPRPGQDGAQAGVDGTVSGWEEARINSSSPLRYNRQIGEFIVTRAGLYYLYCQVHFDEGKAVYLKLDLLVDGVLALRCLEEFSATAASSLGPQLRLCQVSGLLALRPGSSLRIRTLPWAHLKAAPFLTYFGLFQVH
Text: SPR biosensor interaction analysis, a label-free screening approach, was used for real-time monitoring of the kinetics and affinity of peptide hits to TWEAK previously identified by cell-based screening. Peptides from pools 1 and 5 were selected both as positive (49, 30, 35 and 43) and negative hits (1 and 42). For our purposes, TWEAK was chosen as ligand, while peptides were chosen as analytes and passed across ligand-derivatized surface. Nitrilotriacetic acid-coated sensor chips (NTA chip) and a coupling approach that results in the capture of a His6-protein in a non-random orientation by the His6 epitope prior to direct free amine-based covalent coupling was used for histidine-tagged TWEAK immobilization.
After chip validation, peptides selected on our cell-based microarray screening were tested.
For each titration, a zero-analyte surface as a control was subtracted from test sensorgram as well as non-specific binding to the blank flow cell without protein; and the chip surface was regenerated in order to remove any remaining analyte. The black curves show the experimental data, while the overlaid red lines represent a global fit of the entire data set to a 1:1 Langmurian interaction model. The fitting process provided both kinetic association and dissociation rate constants (Ka and Kd), as well as equilibrium dissociation constant (KD) values indicated in Figure 6.
Binding assays were performed at 25 °C in a Biacore 3000 instrument (GE Healthcare, Uppsala, Sweden) using nitrilotriacetic (NTA) sensor chips (GE Healthcare) and HBS-EP (0.01 M HEPES pH 7.4, 0.15 M NaCl, 3 mM EDTA, 0.005 % v/v Surfactant P20) as running buffer. Histidine-tagged human TWEAK (His6-TWEAK) protein (R&D Systems, Minneapolis, MN, USA) was covalently immobilized on the sensor surface using a capture coupling method. Briefly, the NTA surface was first stabilized by injection of regeneration buffer (20 μL EDTA-containing running buffer at 20 μL/min) followed by Ni^2+ binding to the surface (40 μL of 500 μM NiCl2 in running buffer at 20 μL/min). The carboxymethyl dextran surface was then activated for primary amine coupling by injecting coupling solution (30 μL of a 1:1 N-hydroxysuccinimide (NHS)/1-ethyl-3-[3-(dimethylamino)-propyl]carbodiimide hydrochloride (EDC) mixture at 5 μL/min). His6-TWEAK protein in pH 7.4 running buffer was then injected over the surface (60 μL of 10 μg/mL His6-TWEAK at 5 μL/min). To block uncoupled primary amines on the sensor surface, ethanolamine was passed over the surface (35 μL 1M ethanolamine at 5 μL/min). Ligand surfaces were finally conditioned with a 20 µL injection of regeneration solution containing 350 mM EDTA at 20 μL/min. Immobilization levels ranged from 1500 to 7000 resonance units (RUimmob) to test different ligand densities. A blank flow cell on the chip was created by simple injection of 20 μL of regeneration buffer injected over the sensor surface.
Binding experiments using a monoclonal anti-TWEAK antibody (Abcam ref. 199405, Cambridge, UK) were run to ascertain adequate functionalization of the immobilized surface. Selected synthetic TWEAK-Fn14 inhibitory peptides at two-fold serial dilutions from 800 µM to 0 µM in running buffer were flown over the chip for 5 min at 35 µL/min. The dissociation phase was monitored for 10 min at the same flow rate and followed by a regeneration step with 10 µL of 18 mM NaOH. Specific binding responses for each channel were obtained by double referencing; subtracting non-specific binding to the blank flow cell plus an internal reference standard, namely buffer injection response. Each sample was run in triplicate. The experimental data were fitted to a 1:1 Langmuir binding model by the BIAevaluation software version 4.1 (GE Healthcare, Uppsala, Sweden).

[2] = individual peptides, BRV5 + TWEAK, mean of replicate columns
[3] = individual peptides, BRV5 + TWEAK, replicate column 1
[4] = individual peptides, BRV5 + TWEAK, replicate column 2
[5] = individual peptides, BRV5 + TWEAK, normalized to NARS2, listed as P3

TKGGGTADA [Peptide 3]
regulation of probe genes by individual peptides ([1]; BRV5 + TWEAK 25 ng/mL, peptides 450 µM): induced a higher level of expression of the gene
BIRC2 mRNA expression (normalized to NARS2) [1, 2]: 0.7197
HSP90B1 mRNA expression (normalized to NARS2) [1, 2]: 3.909
IL6 mRNA expression (normalized to NARS2) [1, 2]: 0.003239
JUN mRNA expression (normalized to NARS2) [1, 2]: 0.1441
MAP4K4 mRNA expression (normalized to NARS2) [1, 2]: 0.2389
MAPK14 mRNA expression (normalized to NARS2) [1, 2]: 0.2205
NFKB2 mRNA expression (normalized to NARS2) [1, 2]: 0.05335
TNFRSF12A mRNA expression (normalized to NARS2) [1, 2]: 0.03024
TRAF2 mRNA expression (normalized to NARS2) [1, 2]: 0.009427
BIRC2 mRNA expression (normalized to NARS2) [1, 3]: 0.6856
HSP90B1 mRNA expression (normalized to NARS2) [1, 3]: 3.773
IL6 mRNA expression (normalized to NARS2) [1, 3]: 0.004016
JUN mRNA expression (normalized to NARS2) [1, 3]: 0.1498
MAP4K4 mRNA expression (normalized to NARS2) [1, 3]: 0.2356
MAPK14 mRNA expression (normalized to NARS2) [1, 3]: 0.2165
NFKB2 mRNA expression (normalized to NARS2) [1, 3]: 0.05516
TNFRSF12A mRNA expression (normalized to NARS2) [1, 3]: 0.03211
TRAF2 mRNA expression (normalized to NARS2) [1, 3]: 0.009734
BIRC2 mRNA expression (normalized to NARS2) [1, 4]: 0.7537
HSP90B1 mRNA expression (normalized to NARS2) [1, 4]: 4.045
IL6 mRNA expression (normalized to NARS2) [1, 4]: 0.002462
JUN mRNA expression (normalized to NARS2) [1, 4]: 0.1383
MAP4K4 mRNA expression (normalized to NARS2) [1, 4]: 0.2421
MAPK14 mRNA expression (normalized to NARS2) [1, 4]: 0.2245
NFKB2 mRNA expression (normalized to NARS2) [1, 4]: 0.05153
TNFRSF12A mRNA expression (normalized to NARS2) [1, 4]: 0.02838
TRAF2 mRNA expression (normalized to NARS2) [1, 4]: 0.00912
BIRC2 expression Z-Score [1, 5]: 1.1157 and 1.116
HSP90B1 expression Z-Score [1, 5]: 2.9702 and 2.97
IL6 expression Z-Score [1, 5]: 1.1687 and 1.169
JUN expression Z-Score [1, 5]: 0.5369
MAP4K4 expression Z-Score [1, 5]: 1.3444 and 1.344
MAPK14 expression Z-Score [1, 5]: 0.3511
NFKB2 expression Z-Score [1, 5]: 1.2258 and 1.226
TNFRSF12A expression Z-Score [1, 5]: 1.1044 and 1.104
TRAF2 expression Z-Score [1, 5]: -0.4866

SYTDVQDS-NH2 [Peptide 49]
kon (human His6-TWEAK protein; HBS-EP pH 7.4, Biacore 3000, NTA chip, read-out: ka): 4.88 M⁻¹ s⁻¹
pKd (human His6-TWEAK protein; figure 6, HBS-EP pH 7.4, 6.25 µM to 800 µM peptide): 3.27

— article PMC7866087, “Evaluation of Computationally Designed Peptides against TWEAK, a Cytokine of the Tumour Necrosis Factor Ligand Family” (International Journal of Molecular Sciences, 2021)
